Columns and labels:
[1] = biological target: 5-hydroxytryptamine receptor 7 (Homo sapiens, UniProt P34969); assay: Displacement of [3H]-5-CT from human 5-HT7b receptor expressed in HEK293 cell membranes after 1 hr by microbeta TopCount analysis
[2] = biological target: 5-hydroxytryptamine receptor 6 (Homo sapiens, UniProt P50406); assay: Displacement of [3H]-LSD from human 5-HT6 receptor expressed in HEK293 cell membranes after 1 hr by microbeta TopCount analysis
Homo sapiens [3] = organism: Homo sapiens; assay: Selectivity index, ratio of Ki for human 5-HT7B receptor to Ki for human 5-HT6 receptor
[4] = biological target: T1, 5-hydroxytryptamine receptor 1A (Homo sapiens, UniProt P08908); assay: Displacement of [3H]-8-OH-DPAT from human 5-HT1A receptor expressed in HEK293 cell membranes after 1 hr by microbeta TopCount analysis
T1 sequence (P08908 whole entry): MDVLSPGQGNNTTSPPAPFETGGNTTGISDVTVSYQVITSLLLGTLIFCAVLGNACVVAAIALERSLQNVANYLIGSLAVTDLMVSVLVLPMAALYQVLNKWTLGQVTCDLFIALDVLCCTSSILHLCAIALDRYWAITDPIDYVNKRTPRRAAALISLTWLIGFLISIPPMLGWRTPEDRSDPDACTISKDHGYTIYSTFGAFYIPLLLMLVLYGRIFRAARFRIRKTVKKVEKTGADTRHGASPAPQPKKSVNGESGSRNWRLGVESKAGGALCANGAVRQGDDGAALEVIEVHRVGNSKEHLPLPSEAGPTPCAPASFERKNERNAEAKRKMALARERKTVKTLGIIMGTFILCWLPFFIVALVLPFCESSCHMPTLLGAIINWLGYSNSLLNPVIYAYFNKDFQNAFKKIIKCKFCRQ

Homo sapiens [5] = organism: Homo sapiens; assay: Selectivity index, ratio of Ki for human 5-HT1A receptor to Ki for human 5-HT6 receptor
Homo sapiens [6] = organism: Homo sapiens; assay: Selectivity index, ratio of Ki for human 5-HT1A receptor to Ki for human 5-HT7B receptor

5-hydroxytryptamine receptor 7, sequence (P34969 whole entry): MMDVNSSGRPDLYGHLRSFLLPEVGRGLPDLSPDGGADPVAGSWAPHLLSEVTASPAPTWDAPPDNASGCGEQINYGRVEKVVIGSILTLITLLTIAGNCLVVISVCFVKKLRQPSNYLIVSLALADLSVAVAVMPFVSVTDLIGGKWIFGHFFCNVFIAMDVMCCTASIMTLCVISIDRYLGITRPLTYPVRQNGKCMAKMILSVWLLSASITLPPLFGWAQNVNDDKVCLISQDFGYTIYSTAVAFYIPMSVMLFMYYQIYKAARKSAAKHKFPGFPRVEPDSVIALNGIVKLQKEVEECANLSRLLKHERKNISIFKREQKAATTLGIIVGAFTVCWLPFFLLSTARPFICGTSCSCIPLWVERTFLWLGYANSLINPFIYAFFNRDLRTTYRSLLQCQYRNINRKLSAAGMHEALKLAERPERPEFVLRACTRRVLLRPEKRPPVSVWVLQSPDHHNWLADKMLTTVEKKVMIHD
5-hydroxytryptamine receptor 6, sequence (P50406 whole entry): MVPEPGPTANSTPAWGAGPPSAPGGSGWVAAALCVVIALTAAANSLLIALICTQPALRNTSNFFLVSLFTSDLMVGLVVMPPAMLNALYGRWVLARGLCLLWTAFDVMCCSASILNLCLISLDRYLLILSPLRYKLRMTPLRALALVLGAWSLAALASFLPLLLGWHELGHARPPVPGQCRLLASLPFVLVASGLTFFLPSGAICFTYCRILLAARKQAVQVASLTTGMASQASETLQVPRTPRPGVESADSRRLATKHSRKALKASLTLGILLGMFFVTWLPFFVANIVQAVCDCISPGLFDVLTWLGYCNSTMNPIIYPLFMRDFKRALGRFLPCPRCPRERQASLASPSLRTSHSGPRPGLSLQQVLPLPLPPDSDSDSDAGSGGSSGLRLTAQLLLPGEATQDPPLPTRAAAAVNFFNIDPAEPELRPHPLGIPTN

| SMILES | Ki [1] | Ki [2] | Ratio Ki (Homo sapiens [3]) | Ki [4] | Ratio Ki (Homo sapiens [5]) | Ratio Ki (Homo sapiens [6]) |
| --- | --- | --- | --- | --- | --- | --- |
| O[C@H](CCN1CCc2onc(-c3ccc(F)c(F)c3)c2C1)c1ccccc1 | 71.2 µM | 9 µM | 8 | 330 µM | 37 | 5 |
| O=C1N(Cc2ccccc2)C(c2ccccc2)=NC1(Nc1ccccn1)C(F)(F)F (configuration not stated) | 84.5 µM | 1.9 µM | 44 | 284 µM | 149 | 3 |
| CCC1(C)CC(CCNCc2ccccc2)(c2ccc(C)cc2)CCO1 (configuration not stated) | 10.1 µM | 5.6 µM | 2 | 41.8 µM | 8 | 4 |
| CC(NCCC(Cc1ccccc1)c1ccco1)c1ccc(Cl)cc1 (configuration not stated) | 3.8 µM | 1.4 µM | 3 | 7.1 µM | 5 | 2 |
| COc1ccc(CNCCC(c2ccccc2)c2ccc3c(c2)OCO3)cc1 (configuration not stated) | 14.1 µM | 3.7 µM | 4 | 15.6 µM | 4 | 1 |
| Cc1ccc(C(C)NCCC(c2ccc(F)cc2)c2ccco2)cc1 (configuration not stated) | 12.5 µM | 1.8 µM | 7 | 6.1 µM | 3 | 0.5 |
| CCC1(C)CC(CCNCc2ccc(OC)c(OC)c2)(c2ccc(C)cc2)CCO1 (configuration not stated) | 37.2 µM | 3.4 µM | 11 | 36.8 µM | 11 | 1 |
| Cc1ccc(COc2ccc(Br)cc2CNC(C)c2ccccc2)cc1 (configuration not stated) | 3.7 µM | 5.1 µM | 0.7 | 196 µM | 38 | 54 |
| COc1ccc(CNCCC(c2ccco2)c2ccccc2OC)cc1 (configuration not stated) | 10.4 µM | 2.4 µM | 4 | 6.1 µM | 2 | 0.6 |
| Cc1ccc(C(C)(C)CC(C)NCc2ccc(C(F)(F)F)cc2)o1 (configuration not stated) | 6.1 µM | 5.8 µM | 1 | 31.4 µM | 5 | 5 |
| Cc1ccc(C(CCNC(C)c2ccc(Cl)cc2)c2ccco2)cc1 (configuration not stated) | 8.4 µM | 2.5 µM | 3 | 9.1 µM | 4 | 1 |
| COc1cc(CNCCC2=CCCCC2)ccc1OCc1ccccc1 | 8 µM | 2.7 µM | 3 | 4.9 µM | 2 | 0.6 |

Source: ChEMBL document CHEMBL4152222, “Structural insights into serotonin receptor ligands polypharmacology” (Eur J Med Chem, 2018)
